Results as given in patent US20110028441A1, “NOVEL PHENYL-SUBSTITUTED PIPERAZINO-DIHYDROTHIENOPYRIMIDINES” (BOEHRINGER INGELHEIM INTERNATIONAL GMBH, priority 2007, published 2011).

Target: PDE4B (Homo sapiens, UniProt Q07343)
Experiment: Scintillation Proximity (SPA) Assay of PDE4B enzyme inhibition
Assay type: biochemical
Settings: read-out: % Inhibition PDE4B @ 1 μM
Method: The inhibitions (in %) at 1 μM of the individual Example substances are included in the following Tables of Examples and were determined as follows:
The Scintillation Proximity (SPA) Assays (GE Healthcare, No. TRKQ7090) make use of the different affinities of cyclic 3′-5′-adenosine monophosphate (cAMP, low affinity) and linear 5′-adenosine monophosphate (AMP, high affinity) for yttrium silicate scintillator beads. The cAMP specific phosphodiesterase (PDE) PDE4B cleaves the 3′-phosphoester bond of the tritium-labelled [H3]-cAMP to form the [H3]-5′-AMP. Because of its higher affinity for the scintillator beads this [H3]-AMP accumulates on the beads and causes scintillation events (flashes of light) which are measured in a Wallac Microbeta Scintillation Counter.
The test starts with one hours incubation of [H3]-cAMP with the PDE4B enzyme in assay buffer at 30° C., once with the Example substance that is to be tested (in a concentration of 1 μM) and once without the Example substance that is to be tested. After this incubation the reaction is stopped by the addition of the beads. The beads are given an opportunity to settle over the next 45 minutes, then they are measured in the Scintillation Counter. If the substance is capable of inhibiting the enzymatic activity of the PDE4B, less [H3]-AMP is formed during the incubation phase and fewer scintillation events can be measured.

PDE4B, sequence (Q07343 whole entry, species assumed): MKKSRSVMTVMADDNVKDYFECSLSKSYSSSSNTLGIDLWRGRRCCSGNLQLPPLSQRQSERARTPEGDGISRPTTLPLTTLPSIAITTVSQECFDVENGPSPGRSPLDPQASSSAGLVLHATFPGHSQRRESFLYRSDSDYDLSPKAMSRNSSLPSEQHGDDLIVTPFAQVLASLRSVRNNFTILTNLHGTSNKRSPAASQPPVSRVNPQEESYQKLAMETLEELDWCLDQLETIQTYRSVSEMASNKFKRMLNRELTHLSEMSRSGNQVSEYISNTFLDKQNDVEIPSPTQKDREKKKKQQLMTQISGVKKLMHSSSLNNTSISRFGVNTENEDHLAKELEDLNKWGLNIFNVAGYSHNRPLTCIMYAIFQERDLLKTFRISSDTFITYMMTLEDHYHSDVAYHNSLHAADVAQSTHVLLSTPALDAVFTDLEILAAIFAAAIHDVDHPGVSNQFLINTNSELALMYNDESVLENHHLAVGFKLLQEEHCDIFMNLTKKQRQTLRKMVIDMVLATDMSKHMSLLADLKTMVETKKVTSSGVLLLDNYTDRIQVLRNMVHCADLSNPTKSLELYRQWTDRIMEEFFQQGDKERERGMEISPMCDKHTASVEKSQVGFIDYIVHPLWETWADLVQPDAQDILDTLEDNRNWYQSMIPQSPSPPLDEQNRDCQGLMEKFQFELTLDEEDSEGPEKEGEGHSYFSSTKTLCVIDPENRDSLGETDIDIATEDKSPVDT

| Structure (SMILES) | inhibition at 1 µM [%] |
| --- | --- |
| CN1C[C@@H](Nc2nc(N3CCN(c4cccc(F)c4)CC3)nc3c2[S+]([O-])CC3)CCC1=O (stereo partly drawn) [Example 37, (S)-5-{2-[4-(3-FLUOROPHENYL)-PIPERAZIN-1-YL]-5-OXO-6,7-DIHYDRO-5H-5λ^4-THIENO[3,2-D]PYRIMIDIN-4-YLAMINO}-1-METHYLPIPERIDIN-2-ONE] | 97 |
| CN1C[C@@H](Nc2nc(N3CCN(c4ccc(Cl)c(Cl)c4)CC3)nc3c2[S+]([O-])CC3)CCC1=O (stereo partly drawn) [Example 59, (S)-5-{2-[4-(3,4-DICHLOROPHENYL)-PIPERAZIN-1-YL]-5-OXO-6,7-DIHYDRO-5H-5λ^4-THIENO[3,2-D]PYRIMIDIN-4-YLAMINO}-1-METHYLPIPERIDIN-2-ONE] | 96 |
| CN1C[C@@H](Nc2nc(N3CCN(c4ccc(Cl)c(F)c4)CC3)nc3c2[S+]([O-])CC3)CCC1=O (stereo partly drawn) [Example 64, (S)-5-{2-[4-(4-CHLORO-3-FLUOROPHENYL)-PIPERAZIN-1-YL]-5-OXO-6,7-DIHYDRO-5H-5λ^4-THIENO[3,2-D]PYRIMIDIN-4-YLAMINO}-1-METHYLPIPERIDIN-2-ONE] | 94 |

Same assay, conditions: test substance 1 μM; one hour incubation of [H3]-cAMP with PDE4B enzyme at 30° C.; read-out: % Inhibition PDE4B @ 1 μM

| Structure (SMILES) | inhibition at 1 µM [%] |
| --- | --- |
| CC(C)[C@H](CO)Nc1nc(N2CCN(c3ccccc3C#N)CC2)nc2c1[S+]([O-])CC2 (stereo partly drawn) [Example 2, 2-{4-[4-((R)-1-hydroxymethyl-2-methylpropylamino)-5-oxo-6,7-dihydro-5H-5λ^4-thieno[3,2-d]pyrimidin-2-yl]piperazin-1-yl}-benzonitrile] | 92 |
| CC(C)[C@H](CO)Nc1nc(N2CCN(c3ccccc3Cl)CC2)nc2c1[S+]([O-])CC2 (stereo partly drawn) [Example 4, (R)-2-{2-[4-(2-CHLOROPHENYL)-PIPERAZIN-1-YL]-5-OXO-6,7-DIHYDRO-5H-5λ^4-THIENO[3,2-D]PYRIMIDIN-4-YLAMINO}-3-METHYLBUTAN-1-OL] | 88 |
| [O-][S+]1CCc2nc(N3CCN(c4ccccc4Cl)CC3)nc(NC3(CO)CC3)c21 (stereo not shown) [Example 7, (1-{2-[4-(2-chlorophenyl)-piperazin-1-yl]-5-oxo-6,7-dihydro-5H-5λ^4-thieno[3,2-d]pyrimidin-4-ylamino}-cyclopropyl)-methanol] | 94 |
| COc1ccccc1N1CCN(c2nc3c(c(Nc4cccc(F)c4)n2)[S+]([O-])CC3)CC1 (stereo not shown) [Example 21, (3-FLUOROPHENYL)-{2-[4-(2-METHOXYPHENYL)-PIPERAZIN-1-YL]-5-OXO-6,7-DIHYDRO-5H-5λ^4-THIENO[3,2-D]PYRIMIDIN-4-YL}-AMINE] | 96 |
| N#Cc1ccccc1N1CCN(c2nc3c(c(Nc4cccc(F)c4)n2)[S+]([O-])CC3)CC1 (stereo not shown) [Example 22, 2-{4-[4-(3-FLUOROPHENYLAMINO)-5-OXO-6,7-DIHYDRO-5H-5λ^4-THIENO[3,2-D]PYRIMIDIN-2-YL]-PIPERAZIN-1-YL}-BENZONITRILE] | 97 |
| [O-][S+]1CCc2nc(N3CCN(c4ccccc4Cl)CC3)nc(Nc3cccc(F)c3)c21 (stereo not shown) [Example 24, {2-[4-(2-CHLOROPHENYL)-PIPERAZIN-1-YL]-5-OXO-6,7-DIHYDRO-5H-5λ^4-THIENO[3,2-D]PYRIMIDIN-4-YL}-(3-FLUOROPHENYL)-AMINE] | 95 |
| Cc1cccc(N2CCN(c3nc4c(c(NC(CO)C(C)C)n3)[S+]([O-])CC4)CC2)c1 [Example 30, (R)-3-METHYL-2-[5-OXO-2-(4-m-TOLYLPIPERAZIN-1-YL)-6,7-DIHYDRO-5H-5λ^4-THIENO[3,2-D]PYRIMIDIN-4-YLAMINO]-BUTAN-1-OL] | 94 |
| Cc1cccc(N2CCN(c3nc4c(c(Nc5cccc(F)c5)n3)[S+]([O-])CC4)CC2)c1 (stereo not shown) [Example 50, (3-FLUOROPHENYL)-[5-OXO-2-(4-m-TOLYLPIPERAZIN-1-YL)-6,7-DIHYDRO-5H-5λ^4-THIENO[3,2-D]PYRIMIDIN-4-YL]-AMINE] | 96 |
| Cc1cc(Cl)ccc1N1CCN(c2nc3c(c(Nc4cccc(F)c4)n2)[S+]([O-])CC3)CC1 (stereo not shown) [Example 67, {2-[4-(4-CHLORO-2-METHYLPHENYL)-PIPERAZIN-1-YL]-5-OXO-6,7-DIHYDRO-5H-5λ^4-THIENO[3,2-D]PYRIMIDIN-4-YL}-(3-FLUOROPHENYL)-AMINE] | 94 |
| CC(C)[C@H](CO)Nc1nc(N2CCN(c3cc(Cl)cc(Cl)c3)CC2)nc2c1[S+]([O-])CC2 (stereo partly drawn) [Example 68, (R)-2-{2-[4-(3,5-DICHLOROPHENYL)-PIPERAZIN-1-YL]-5-OXO-6,7-DIHYDRO-5H-5λ^4-THIENO[3,2-D]PYRIMIDIN-4-YLAMINO}-3-METHYLBUTAN-1-OL] | 96 |

Continued, values first:

| inhibition at 1 µM [%] | Structure (SMILES) |
| --- | --- |
| 96 | CN1C[C@@H](Nc2nc(N3CCN(c4ccccc4Cl)CC3)nc3c2[S+]([O-])CC3)CCC1=O (stereo partly drawn) [Example 14, (S)-5-{2-[4-(2-chlorophenyl)-piperazin-1-yl]-5-oxo-6,7-dihydro-5H-5λ^4-thieno[3,2-d]pyrimidin-4-ylamino}-1-methylpiperidin-2-one] |
| 95 | [O-][S+]1CCc2nc(N3CCN(c4ccccc4Cl)CC3)nc(NC3CCOCC3)c21 (stereo not shown) [Example 19, {2-[4-(2-chlorophenyl)-piperazin-1-yl]-5-oxo-6,7-dihydro-5H-5λ^4-thieno[3,2-d]pyrimidin-4-yl}-(tetrahydropyran-4-yl)-amine] |
| 96 | CC(C)C(CO)Nc1nc(N2CCN(c3cccc(F)c3)CC2)nc2c1[S+]([O-])CC2 [Example 27, (R)-2-{2-[4-(3-FLUOROPHENYL)-PIPERAZIN-1-YL]-5-OXO-6,7-DIHYDRO-5H-5λ^4-THIENO[3,2-D]PYRIMIDIN-4-YLAMINO}-3-METHYLBUTAN-1-OL] |
| 97 | [O-][S+]1CCc2nc(N3CCN(c4cccc(F)c4)CC3)nc(NC3(CO)CC3)c21 (stereo not shown) [Example 32, (1-{2-[4-(3-FLUOROPHENYL)-PIPERAZIN-1-YL]-5-OXO-6,7-DIHYDRO-5H-5λ^4-THIENO[3,2-D]PYRIMIDIN-4-YLAMINO}-CYCLOPROPYL)-METHANOL] |
| 96 | [O-][S+]1CCc2nc(N3CCN(c4cccc(F)c4)CC3)nc(NC3CCOCC3)c21 (stereo not shown) [Example 42, {2-[4-(3-FLUOROPHENYL)-PIPERAZIN-1-YL]-5-OXO-6,7-DIHYDRO-5H-5λ^4-THIENO[3,2-D]PYRIMIDIN-4-YL}-(TETRAHYDROPYRAN-4-YL)-AMINE] |
| 96 | [O-][S+]1CCc2nc(N3CCN(c4cccc(F)c4)CC3)nc(Nc3cccc(F)c3)c21 (stereo not shown) [Example 47, (3-FLUOROPHENYL)-{2-[4-(3-FLUOROPHENYL)-PIPERAZIN-1-YL]-5-OXO-6,7-DIHYDRO-5H-5λ^4-THIENO[3,2-D]PYRIMIDIN-4-YL}-AMINE] |
| 89 | CC(C)C(CO)Nc1nc(N2CCN(c3ccc(Cl)c(C#N)c3)CC2)nc2c1[S+]([O-])CC2 [Example 53, 2-chloro-5-{4-[4-((R)-1-hydroxymethyl-2-methyl-propylamino)-5-oxo-6,7-dihydro-5H-5λ^4-thieno[3,2-d]pyrimidin-2-yl]-piperazin-1-yl}-benzonitrile] |
| 63 | Cc1cc(N2CCN(c3nc4c(c(NC(CO)C(C)C)n3)[S+]([O-])CC4)CC2)ccc1Cl [Example 54, (R)-2-{2-[4-(4-chloro-3-methylphenyl)-piperazin-1-yl]-5-oxo-6,7-dihydro-5H-5λ^4-thieno[3,2-d]pyrimidin-4-ylamino}-3-methylbutan-1-ol] |
| 94 | CCC[C@H](CO)Nc1nc(N2CCN(c3ccc(Cl)c(C(F)(F)F)c3)CC2)nc2c1[S+]([O-])CC2 (stereo partly drawn) [Example 56, (R)-2-{2-[4-(4-chloro-3-trifluoromethylphenyl)-piperazin-1-yl]-5-oxo-6,7-dihydro-5H-5λ^4-thieno[3,2-d]pyrimidin-4-ylamino}-pentan-1-ol] |
| 96 | [O-][S+]1CCc2nc(N3CCN(c4ccc(Cl)c(Cl)c4)CC3)nc(NC3(CO)CC3)c21 (stereo not shown) [Example 57, (1-{2-[4-(3,4-DICHLOROPHENYL)-PIPERAZIN-1-YL]-5-OXO-6,7-DIHYDRO-5H-5λ^4-THIENO[3,2-D]PYRIMIDIN-4-YLAMINO}-CYCLOPROPYL)-METHANOL] |
| 96 | [O-][S+]1CCc2nc(N3CCN(c4ccc(Cl)c(Cl)c4)CC3)nc(NC3CCOCC3)c21 (stereo not shown) [Example 58, {2-[4-(3,4-DICHLOROPHENYL)-PIPERAZIN-1-YL]-5-OXO-6,7-DIHYDRO-5H-5λ^4-THIENO[3,2-D]PYRIMIDIN-4-YL}-(TETRAHYDROPYRAN-4-YL)-AMINE] |
| 94 | CC(C)C(CO)Nc1nc(N2CCN(c3ccc(Cl)c(F)c3)CC2)nc2c1[S+]([O-])CC2 [Example 60, (R)-2-{2-[4-(4-chloro-3-fluorophenyl)-piperazin-1-yl]-5-oxo-6,7-dihydro-5H-5λ^4-thieno[3,2-d]pyrimidin-4-ylamino}-3-methylbutan-1-ol] |
| 95 | [O-][S+]1CCc2nc(N3CCN(c4ccc(Cl)c(F)c4)CC3)nc(NC3(CO)CC3)c21 (stereo not shown) [Example 61, (1-{2-[4-(4-CHLORO-3-FLUOROPHENYL)-PIPERAZIN-1-YL]-5-OXO-6,7-DIHYDRO-5H-5λ^4-THIENO[3,2-D]PYRIMIDIN-4-YLAMINO}-CYCLOPROPYL)-METHANOL] |
| 95 | [O-][S+]1CCc2nc(N3CCN(c4ccc(Cl)c(F)c4)CC3)nc(NC3CCOCC3)c21 (stereo not shown) [Example 62, {2-[4-(4-CHLORO-3-FLUOROPHENYL)-PIPERAZIN-1-YL]-5-OXO-6,7-DIHYDRO-5H-5λ^4-THIENO[3,2-D]PYRIMIDIN-4-YL}-(TETRAHYDROPYRAN-4-YL)-AMINE] |
| 95 | [O-][S+]1CCc2nc(N3CCN(c4ccc(Cl)c(F)c4)CC3)nc(Nc3cccc(F)c3)c21 (stereo not shown) [Example 63, {2-[4-(4-CHLORO-3-FLUOROPHENYL)-PIPERAZIN-1-YL]-5-OXO-6,7-DIHYDRO-5H-5λ^4-THIENO[3,2-D]PYRIMIDIN-4-YL}-(3-FLUOROPHENYL)-AMINE] |
